Reference: BigSolDB 2.1

COc1ccc2nc(S(=O)Cc3ncc(C)c(OC)c3C)[nH]c2c1 (stereo unspecified)
solubility (mole fraction)
Details	in THF	in acetone	in acetonitrile	in ethanol	in ethyl acetate	in methanol	in n-butanol	in water
278.15 K	0.00458	0.00146	0.00118	0.00157	0.000981	0.00206	0.00128	4.07e-05
283.15 K	0.00644	0.00173	0.00143	0.00187	0.00112	0.00264	0.00153	5e-05
288.15 K	0.00843	0.00215	0.00182	0.00224	0.00134	0.00348	0.00196	6.15e-05
293.15 K	0.0113	0.00265	0.00222	0.00261	0.00156	0.00435	0.0024	7.64e-05
298.15 K	0.0146	0.00313	0.00273	0.00347	0.00185	0.00569	0.00303	9.36e-05
303.15 K	0.0196	0.00377	0.00354	0.00413	0.0022	0.00686	0.0037	0.000115
308.15 K	0.0259	0.00464	0.00429	0.00509	0.00253	0.00857	0.00455	0.000138
313.15 K	0.0327	0.00541	0.00513	0.00605	0.00293	0.0106	0.0054	0.000165
318.15 K	0.0425	0.00637	0.00607	0.00702	0.00343	0.0129	0.0065	0.000196
323.15 K	0.0545	0.00739	0.00711	0.00832	0.00405	0.0156	0.00779	0.00023
328.15 K	0.0663	0.0085	0.00843	0.00982	0.0047	0.0186	0.00884	0.000263
333.15 K	0.0789	0.00982	0.00978	0.0113	0.00523	0.0216	0.0103	0.000299
